The text below walks through data of patent publication US20230131899A1, “INHIBITORS OF MICROBIALLY INDUCED AMYLOID” (Axial Therapeutics, Inc., priority 2020, published 2023).

Like-named read-outs stand apart in the source and are kept apart here.

Test [1] has as its target T1, E. coli CsgA (Escherichia coli, UniProt P28307).
T1 construct: made in house; host or cells: E. coli NEB 3016 slyD::kan, pET11d
The test can be described thus: In vitro ThioflavinT assay of CsgA aggregation (CsgA ThT Assay). The note with it: for remaining activity at 25 µM: compound 25 μM; for remaining activity at 100 µM: compound 100 μM. In kind it is biochemical. In outline: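 Purified C-terminal His-tagged CsgA, monomerised by desalting and 30-kDa filtration, at 2-20 μM with 20-40 μM ThT in 50 mM potassium phosphate pH 7.3, 1% DMSO, compounds 3.125-200 uM; room temperature, fluorescence (ex 438/em 495 nm) read every 15 min. Background-subtracted signal expressed as percent inhibition versus vehicle at 6-6.5 or 8-9 h, or as percent control AUC.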

Test [2] has as its system CsgA gene expression (csgBAC promoter-GFP reporter) in E. coli UTI89. The test is described as follows: In vitro live cell fluorescent reporter assay of CsgA transcription (Reporter Assay). It is filed as cell-based. The following applies: Escherichia coli. In outline:
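Compounds at 0.14–100 μM (1% DMSO final) incubated 20 h at 27 °C in YESCA broth with UTI89 carrying a single-copy GFP reporter under the csgBAC intergenic promoter region, inoculum OD600 0.003. Fluorescence normalized to vehicle wells gave IC50 and 50%-of-vehicle concentration; OD600 reduction >10% flagged growth impact.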
(In general: A reporter such as luciferase makes a cellular process visible.)

The mark [3] stands for this setting: read-out: CsgA ThT Assay (10 μM CsgA) % Control AUC at 1005 minutes, 25 μM (activity range), CsgA 10 μM, black plates, 1005 minutes, class symbol.
Where [4] appears, read: read-out: CsgA ThT Assay (10 μM CsgA) % Control AUC at 1005 minutes, 25 μM, mean AUC as % of DMSO control, CsgA 10 μM, black plates, 1005 minutes.
Where [5] appears, read: read-out: CsgA ThT Assay (10 μM CsgA) % Control AUC at 1005 minutes, 100 μM (activity range), CsgA 10 μM, black plates, 1005 minutes, class symbol.
Setting [6] is: read-out: CsgA ThT Assay (10 μM CsgA) % Control AUC at 1005 minutes, 100 μM, mean AUC as % of DMSO control, CsgA 10 μM, black plates, 1005 minutes.
Where [7] appears, read: read-out: Reporter Assay Abs IC50 (activity range), median Abs IC50 in the CsgA reporter assay, class symbol.
Setting [8] is: read-out: Reporter Assay Abs IC50 (μM), median Abs IC50 in the CsgA reporter assay, N/A = maximum expression reduction is <50% of control.
The mark [9] stands for this setting: read-out: CsgA ThT Assay (2 μM CsgA) % Control Bmax 25 μM, activity range, class symbol, CsgA 2 μM, white plates.
Setting [10] is: read-out: CsgA ThT Assay (2 μM CsgA) % Control Bmax 25 μM, mean Bmax as percentage of DMSO control, CsgA 2 μM, white plates.
Where [11] appears, read: read-out: CsgA ThT Assay (2 μM CsgA) % Control Bmax 100 μM, activity range, class symbol, CsgA 2 μM, white plates.
The mark [12] stands for this setting: read-out: CsgA ThT Assay (2 μM CsgA) % Control Bmax 100 μM, mean Bmax as percentage of DMSO control, CsgA 2 μM, white plates.
[13] abbreviates: read-out: Reporter Assay Abs IC50, activity range, class symbol.

T1 sequence (P28307 23-151): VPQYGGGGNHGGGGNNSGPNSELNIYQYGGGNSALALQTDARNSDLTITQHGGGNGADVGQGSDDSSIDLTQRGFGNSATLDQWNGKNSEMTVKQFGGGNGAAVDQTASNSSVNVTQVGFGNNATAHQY

Usually IC50 stands for the concentration that inhibits the measured activity by half. For `COC(=O)C1CSc2c(-c3cccc(C(F)(F)F)c3)c(Cc3cccc4ccccc34)cc(=O)n21` (stereo not shown) [Compound 012, Methyl 7-(naphthalen-1-ylmethyl)-5-oxo-8-(3-(trifluoromethyl)phenyl)-2,3-dihydro-5H-thiazolo[3,2-a]pyridine-3-carboxylate], the remaining activity at 25 µM in test [1] (setting [3]) was greater than 60%; in test [1] (setting [4]) it was 108%. The remaining activity at 100 µM in test [1] (setting [5]) is greater than 60%; in test [1] (setting [6]) it was 107%. Besides, the 50% inhibitory concentration (IC50) in test [2] (setting [7]) was 1.3 to 4.5 µM; in test [2] (setting [8]), 3.3 µM.

Regarding `CNC(=O)CN1CC(C(=O)O)n2c(c(-c3cccc(C(F)(F)F)c3)c(Cc3cccc4ccccc34)cc2=O)S1(=O)=O` (stereo not shown) [Compound 049, 2-(2-(methylamino)-2-oxoethyl)-8-(naphthalen-1-ylmethyl)-6-oxo-9-(3-(trifluoromethyl)phenyl)-3,4-dihydro-2H,6H-pyrido[1,2-e][1,2,5]thiadiazine-4-carboxylic acid 1,1-dioxide], the remaining activity at 25 µM is greater than 60% in test [1] (setting [3]) and 74% in test [1] (setting [4]). The remaining activity at 100 µM was 31 to 60% in test [1] (setting [5]) and 35% in test [1] (setting [6]). In addition, the IC50 in test [2] (setting [7]) was 4.6 to 10 µM; in test [2] (setting [8]), 8.9 µM.

As for `CN1CC(C(=O)O)n2c(c(-c3cccc(C(F)(F)F)c3)c(Cc3cccc4ccccc34)c(C(O)CO)c2=O)S1(=O)=O` (stereo not shown) [Compound 101, 7-(1,2-dihydroxyethyl)-2-methyl-8-(naphthalen-1-ylmethyl)-6-oxo-9-(3-(trifluoromethyl)phenyl)-3,4-dihydro-2H,6H-pyrido[1,2-e][1,2,5]thiadiazine-4-carboxylic acid 1,1-dioxide], the remaining activity at 25 µM in test [1] (setting [3]) is greater than 60%; in test [1] (setting [4]) it was 61%. For the same molecule, the figures for the remaining activity at 100 µM in test [1] (setting [5]) and in test [1] (setting [6]) were 11 to 31% and 15%, respectively. Moreover, the IC50 was greater than 10 µM in test [2] (setting [7]) and 29 µM in test [2] (setting [8]).

Take `O=C(O)C1CN(Cc2ccccc2)c2c(-c3cccc(C(F)(F)F)c3)c(Cc3cncc4ccccc34)c(Cl)c(=O)n21` (stereo not shown) [Compound 210, 1-benzyl-6-chloro-7-(isoquinolin-4-ylmethyl)-5-oxo-8-(3-(trifluoromethyl)phenyl)-1,2,3,5-tetrahydroimidazo[1,2-a]pyridine-3-carboxylic acid]: the figures for the remaining activity at 25 µM in test [1] (setting [9]) and in test [1] (setting [10]) were greater than 60% and 79%, respectively. For the same molecule, the remaining activity at 100 µM is greater than 60% in test [1] (setting [11]) and 61% in test [1] (setting [12]). Moreover, the IC50 in test [2] (setting [8]) was 2.5 µM; in test [2] (setting [13]) it was 1.3 to 4.5 µM.

For `O=C(O)[C@H]1CN(Cc2ccccc2)c2c(-c3cccc(C(F)(F)F)c3)c(Cc3cccc4ccccc34)c(Br)c(=O)n21` (single isomer, unassigned) [Compound 190], the remaining activity at 25 µM in test [1] (setting [9]) is greater than 60%; in test [1] (setting [10]), 63%. Further, the remaining activity at 100 µM in test [1] (setting [11]) is 31 to 60%; in test [1] (setting [12]), 56%. Also, the IC50 in test [2] (setting [8]) was 1.6 µM; in test [2] (setting [13]) it was 1.3 to 4.5 µM.

Take `CCCN1CC(C(=O)O)n2c(c(-c3cccc(C(F)(F)F)c3)c(Cc3cccc4ccccc34)c(Br)c2=O)S1(=O)=O` (stereo not shown) [Compound 107, 7-bromo-8-(naphthalen-1-ylmethyl)-6-oxo-2-propyl-9-(3-(trifluoromethyl)phenyl)-3,4-dihydro-2H,6H-pyrido[1,2-e][1,2,5]thiadiazine-4-carboxylic acid 1,1-dioxide]: the remaining activity at 25 µM in test [1] (setting [3]) was 31 to 60%; in test [1] (setting [4]), 36%. Besides, the remaining activity at 100 µM in test [1] (setting [5]) was 31 to 60%; in test [1] (setting [6]), 38%. For the same molecule, the IC50 in test [2] (setting [7]) is 1.3 to 4.5 µM; in test [2] (setting [8]), 3.7 µM.

For the molecule `Nc1c(Cc2cccc3ccccc23)c(-c2cccc(C(F)(F)F)c2)c2n(c1=O)C(C(=O)O)CN(C[C@H](O)CO)S2(=O)=O` (stereo partly drawn) [Compound 095, 7-amino-2-((S)-2,3-dihydroxypropyl)-8-(naphthalen-1-ylmethyl)-6-oxo-9-(3-(trifluoromethyl)phenyl)-3,4-dihydro-2H,6H-pyrido[1,2-e][1,2,5]thiadiazine-4-carboxylic acid 1,1-dioxide], the figures for the remaining activity at 25 µM in test [1] (setting [3]) and in test [1] (setting [4]) were greater than 60% and 91%, respectively. The remaining activity at 100 µM is greater than 60% in test [1] (setting [5]) and 70% in test [1] (setting [6]). Also, the IC50 in test [2] (setting [7]) is greater than 10 µM; in test [2] (setting [8]), 25.9 µM.

Consider `Nc1c(Cc2cccc3ccccc23)c(-c2cccc(C(F)(F)F)c2)c2n(c1=O)C(C(=O)O)CN(CCCCCO)S2(=O)=O` (stereo not shown) [Compound 100, 7-amino-2-(5-hydroxypentyl)-8-(naphthalen-1-ylmethyl)-6-oxo-9-(3-(trifluoromethyl)phenyl)-3,4-dihydro-2H,6H-pyrido[1,2-e][1,2,5]thiadiazine-4-carboxylic acid 1,1-dioxide], for which the remaining activity at 25 µM was 31 to 60% in test [1] (setting [3]) and 41% in test [1] (setting [4]). Also, the remaining activity at 100 µM is 31 to 60% in test [1] (setting [5]) and 31% in test [1] (setting [6]). Moreover, the results for the IC50 in test [2] (setting [7]) and in test [2] (setting [8]) were greater than 10 µM and 14.5 µM, respectively.

In the case of `O=C(O)C1CN(C(CO)CO)S(=O)(=O)c2c(-c3cccc(C(F)(F)F)c3)c(Cc3cccc4ccccc34)cc(=O)n21` (stereo not shown) [Compound 106, 2-(1,3-dihydroxypropan-2-yl)-8-(naphthalen-1-ylmethyl)-6-oxo-9-(3-(trifluoromethyl)phenyl)-3,4-dihydro-2H,6H-pyrido[1,2-e][1,2,5]thiadiazine-4-carboxylic acid 1,1-dioxide], the remaining activity at 25 µM is greater than 60% in test [1] (setting [3]) and 95% in test [1] (setting [4]). Besides, the remaining activity at 100 µM in test [1] (setting [5]) is 31 to 60%; in test [1] (setting [6]), 38%. Also, the half-maximal inhibitory concentration (IC50) is greater than 10 µM in test [2] (setting [7]) and 28.3 µM in test [2] (setting [8]).

As for `O=C(O)C1CNc2c(-c3cccc(C(F)(F)F)c3)c(Cc3cccc4ccccc34)cc(=O)n21` (stereo not shown) [Compound 080, 7-(naphthalen-1-ylmethyl)-5-oxo-8-(3-(trifluoromethyl)phenyl)-1,2,3,5-tetrahydroimidazo[1,2-a]pyridine-3-carboxylic acid], the results for the remaining activity at 25 µM in test [1] (setting [3]) and in test [1] (setting [4]) were greater than 60% and 80%, respectively. Besides, the remaining activity at 100 µM in test [1] (setting [5]) was greater than 60%; in test [1] (setting [6]) it was 72%. In addition, the IC50 was greater than 10 µM in test [2] (setting [7]) and 26.3 µM in test [2] (setting [8]).

In the case of `CN(C)Cc1c(Cc2cccc3ccccc23)c(-c2cccc(C(F)(F)F)c2)c2n(c1=O)C(C(=O)O)CN2Cc1ccccc1` (stereo not shown) [Compound 204, 1-benzyl-6-((dimethylamino)methyl)-7-(naphthalen-1-ylmethyl)-5-oxo-8-(3-(trifluoromethyl)phenyl)-1,2,3,5-tetrahydroimidazo[1,2-a]pyridine-3-carboxylic acid], the results for the remaining activity at 100 µM in test [1] (setting [11]) and in test [1] (setting [12]) were greater than 60% and 71%, respectively. Moreover, the IC50 in test [2] (setting [8]) was 1.9 µM; in test [2] (setting [13]) it was 1.3 to 4.5 µM.

Turning to `Nc1c(Cc2cccc3ccccc23)c(-c2cccc(C(F)(F)F)c2)c2n(c1=O)C(C(=O)O)CN(C[C@@H](O)CO)S2(=O)=O` (stereo partly drawn) [Compound 096, 7-amino-2-((R)-2,3-dihydroxypropyl)-8-(naphthalen-1-ylmethyl)-6-oxo-9-(3-(trifluoromethyl)phenyl)-3,4-dihydro-2H,6H-pyrido[1,2-e][1,2,5]thiadiazine-4-carboxylic acid 1,1-dioxide], the remaining activity at 25 µM in test [1] (setting [3]) was greater than 60%; in test [1] (setting [4]), 79%. For the same molecule, the results for the remaining activity at 100 µM in test [1] (setting [5]) and in test [1] (setting [6]) were greater than 60% and 71%, respectively. Also, the 50% inhibitory concentration (IC50) in test [2] (setting [7]) is greater than 10 µM; in test [2] (setting [8]), 22.9 µM.
